Results as given in US20260034192A1 (University of Saskatchewan, priority 2022, published 2026).
“And” between values parts separate entries of the source, which are not always exact repeats. Equal entries are not always repeated. Marks after values point to notes of the source that are not given here. Ends that are not written are not given here.

Key:
Assay type in all cases: in vivo, cattle
[1] = tested on: Brahman x Angus cross beef post-partum cows; experiment: Field trial of fixed-time AI after cetrorelix versus estradiol protocol (Example 8)
Procedure: This field trial was conducted by a faculty member of the Federal University of Santa Maria at a client beef farm in Brazil in December 2022. A total of 216 Brahman x Angus cross beef post-partum cows were used for this experiment. Cows were divided into two treatment groups ([…]) and were either given cetrorelix 3 mg i/m or estradiol benzoate on a random day of the cycle (defined as Day 0). An intravaginal progesterone device (CIDR) was placed in all cows on Day 0. The CIDR devices were removed on Day 8 and animals were given prostaglandin F2a analog and equine choriogonadotropin (eCG). Fixed-time artificial insemination was done 54 hrs after CIDR removal and animals were given GnRH at this time. Pregnancy diagnosis was performed on Day 30 after artificial insemination. Transrectal ultrasound examinations were performed on Day 0, Day 8, Day 10 and Day 40.

mature Angus heifers = experiment: Cetrorelix versus estradiol benzoate synchronization protocol with AI, random day of cycle (Example 7)
Procedure: This experiment was conducted on 38 mature Angus heifers at the Federal University of Santa Maria in Brazil. Heifers on a random day of the cycle (defined as Day 0) were divided into 2 groups (n=19 per group) and treated with a single i/m injection of 3 mg cetrorelix or with estradiol benzoate (1 mg i/m). A progesterone-releasing device (CIDR) was placed in the vagina of heifers at this time. Eight days after the cetrorelix or estradiol treatments, heifers were given 500 ug cloprostenol (prostaglandin analog) i/m injections and the CIDR device was removed. […] Heifers were given 250 ug gonadorelin acetate (GnRH analog) i/m injection at the time of artificial insemination. […] Pregnancy diagnosis was done 29-30 days after artificial insemination.

[2] = tested on: Hereford crossbred heifers; experiment: Cetrorelix pre-treatment before kisspeptin-10 in low-progesterone heifer model (Example 1); details: for Ovulation rate after treatments: number of heifer/total: extant dominant follicle
Procedure: Methods: The human Kisspeptin-10 (hKP-10) peptide (YNWNSFGLRF-NH2; SEQ ID NO: 1) was custom synthetized at >95% of purity (MW: 1318.44 g/mol) by GenScript USA Inc, Piscataway, NJ, USA. The sequence is based on the predicted C-terminal region (112-121-NH2) of human metastin (Gen Bank accession #AY117143) and has been previously used in cattle. The peptide was previously tested for solubility and was dissolved in ultrapure water at 10 mg/mL.
The heifers were maintained in outdoor pens at the University of Saskatchewan Goodale Research Farm (52° north and 106° west). Heifers were fed barley silage and had hay and water ad libitum. A mineral salt block was available to heifers throughout the study period. All procedures were performed in accordance with Canadian Council on Animal Care and were approved by the University of Saskatchewan Protocol Review Committee.
Immediately after ultrasound examination, heifers were given PGF2a twice at an interval of 12-hours. The low-progesterone bovine model described previously (Leonardi et al. 2019) was used to test the hypothesis. Briefly, the ovaries were examined daily by ultrasonography to detect ovulation. Three days after ovulation, follicles ≥5 mm in diameter in both ovaries were ablated by transvaginal ultrasound-guided follicle aspiration, inducing the emergence of new follicular wave 1.5 days after the procedure (Bergfelt et al. 1994). After follicular ablation, a progesterone device was placed in the vagina (CIDR; Zoetis). The day of wave emergence (Day 0) was defined as the day when the follicle of wave was first recorded (4 to 5 mm in diameter) with concurrent increase in diameter. Heifers were given PGF2α im on Days 3.5 and 4 (i.e., 8 and 8.5 days after ovulation) to cause luteolysis, however, the CIDR devices were left in place until Day 12 to maintain a low-progesterone milieu sufficient to prevent spontaneous ovulation. On Day 6, an indwelling jugular catheter was placed as described (Bergfelt et al. 1997) and heifers were assigned randomly to three groups (n=5 per group): 1) 3 iv doses of 15 mg human kisspeptin-10 at 1 h intervals (Kp10 group), 2) pretreatment with single im dose of Cetrorelix acetate (20 μg/Kg of body weight, GnRH antagonist—Sigma #C5249 diluted in 5% D-Manitol w/v, Sigma #M4125) followed 3 h later with 3 iv doses of 15 mg human kisspeptin-10 at 1 h intervals (Cetrorelix group), or 3) 3 iv doses of normal saline at 1 h intervals (Control group). Following treatment (on Day 6), ovarian ultrasound examinations were performed daily until the end of the experiment to detect ovulation of the extant dominant follicle (i.e., dominant follicle present at the time of treatment) or of the dominant follicle originating from a subsequent wave. The progesterone device was withdrawn on Day 12 (i.e., thirteen days after insertion) and ultrasound examinations were continued until ovulation was detected.
Blood samples and hormone assays: Serial blood samples on the day of treatment were collected at 15 minute intervals from −30 to 150 min (0 min=time of first hKP-10 or saline injection) using the indwelling jugular catheter. All blood samples were collected in heparinized tubes (Vacutainer, BD, Franklin Lakes NJ, USA). Immediately after sampling, tubes were centrifuged at 1,500×g for 15 min, and plasma was separated and stored at −20° C.
The plasma samples from both experiments were analyzed for LH and progesterone concentration at the University of Wisconsin (Madison, WI, USA) in Dr O. J. Ginther's Research Laboratory. Plasma LH concentrations were measured with a validated radioimmunoassay for cattle (Bolt et al. 1990) with modifications as reported Ginther et al. 1999). Briefly, LH concentrations were measured in duplicate using USDA-bLH-B-6 for ^125I-iodination and for preparing reference standards, and USDA-309-684P as the primary antibody (National Hormone and Pituitary Program, Torrance, CA, USA). […]

[3] = 30 days after fixed-time artificial insemination
[4] = 3 mg cetrorelix or 1 mg estradiol benzoate i/m
[5] = Day 6 of wave, low progesterone, Kp10 3 x 15 mg iv, Cetrorelix 20 μg/Kg im 3 h before Kp10
[6] = Kp10 3 x 15 mg iv, Cetrorelix 20 μg/Kg im 3 h before Kp10

## C[C@]12CC[C@@H]3c4ccc(OC(=O)c5ccccc5)cc4CC[C@H]3[C@@H]1CC[C@@H]2O [Estradiol benzoate, estradiol benzoate]
[1]; [3]
  Conception rate: Percent: 45.6%
  Conception rate: Pregnant/AI: 48/106*
[1]; 30 days after fixed-time artificial insemination, listed as estradiol
  Conception rate: Percent: 45.6%
[1]; cetrorelix 3 mg i/m or estradiol benzoate on Day 0, CIDR removal Day 8, in mm
  Size of the dominant follicle on Day 8 (at PGF): 8.60 ± 0.39
[1]; cetrorelix 3 mg i/m or estradiol benzoate on Day 0, in mm
  Size of the dominant follicle on Day 10 (at AI): 11.38 ± 0.56
Mature Angus heifers; [4]
  Pregnant/Double AI: 7/12
  Pregnant/Double AI, percent: 58%
  Pregnant/Single AI: 6/7
  Pregnant/Single AI, percent: 86%
Mature Angus heifers; random day of cycle, 3 mg cetrorelix i/m or 1 mg estradiol benzoate i/m, CIDR 8 days
  Pregnant/Total, percent (pregnancy rate): 68%
Mature Angus heifers; random day of cycle, 3 mg cetrorelix i/m or 1 mg estradiol benzoate i/m, CIDR 8 days, PGF, GnRH at AI
  Pregnant/Total: 13/19

## Kp10: human Kisspeptin-10 (hKP-10) peptide YNWNSFGLRF-NH2; SEQ ID NO: 1 (listed as Homo sapiens)
[2]; Day 6 of wave, low progesterone, Kp10 3 x 15 mg iv
  Interval between treatment and ovulation (hours after treatment): 48 h
[2]; [5]
  Dominant follicle diameter 24 h after treatment: 12.24 ± 0.89 mm
  Dominant follicle diameter 48 h after treatment: 16.51 mm
  Dominant follicle diameter at time of treatment: 11.34 ± 0.91 mm
  Ovulation rate after treatments: number of heifer/total: 4 of 5 and 4/5^a
[2]; Day 6 of wave, low progesterone, Kp10 3 x 15 mg iv, Cetrorelix single im 20 μg/Kg 3 h before Kp10
  Emergence of a new follicular wave after treatment: 2.75 ± 0.75 days
[2]; Day of follicular wave
  Day of ovulation of new dominant follicles after CIDR removal (Day 12): 15
[2]; [6]
  Heifers in which a new wave emergence occurred: 4 of 5
  Number of ovulations after CIDR removal on Day 12: Extant dominant follicle: 1/1
  Number of ovulations after CIDR removal on Day 12: New dominant follicle: 4/4
  Plasma LH concentration / kisspeptin-induced LH surge: higher plasma LH concentrations
[2]; Day 6 of wave, low progesterone, Kp10 3 x 15 mg iv, Cetrorelix 20 μg/Kg im 3 h before Kp10, listed as kisspeptin
  Ovulation rate after treatments: number of heifer/total: 4 out of 5
